Reference: PubChem BioAssay AID2060616 (Molecular Pharmacology Branch, DTP, NCI, 2025)

System: 377384-186-R-J1-PDC complex spheroid viability
Experiment: Anticancer human tumor 377384-186-R-J1-PDC patient-derived pancreatic carcinoma cell line growth inhibition [CLK]
Conditions: for IC50: curve of first compound; for viability, T/C: stronger effect = lower value
Method in brief: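 Patient-derived tumor cells grown as complex spheroids with HUVEC endothelial cells and mesenchymal stem cells, treated with drug combinations. Concentrations descend in half-log steps from near clinical Cmax, or from 10 microM if Cmax unknown.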
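Note: spheroids exposed to agents for 7 days before reading.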
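Throughout, for viability, T/C: luminescence signal used as a stand-in for viable cells.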

Compound `CCN1CCN(Cc2ccc(Nc3ncc(F)c(-c4cc(F)c5nc(C)n(C(C)C)c5c4)n3)nc2)CC1` + CNC(=O)c1ccc(Nc2nc(OC3CCCC3)c3c(-c4ccc5nc(C)oc5c4)c[nH]c3n2)c(OC)c1 has an IC50 (second compound 0.0316 µM) of 299 nM, an IC50 (second compound 0.1 µM) of 17.4 nM and an IC50 (second compound 0.316 µM) of less than 3.16 nM. The IC50 (second compound 1 µM) was less than 3.16 nM, the IC50 (second compound 3.16 µM) was less than 3.16 nM and the IC50 (second compound 10 µM) was less than 3.16 nM. For the same compound, the viability, T/C (second compound 0.0316 µM, first compound 0.00316 µM) was 105%, the viability, T/C (second compound 0.0316 µM, first compound 0.01 µM) was 84.2% and the viability, T/C (second compound 0.0316 µM, first compound 0.0316 µM) was 80%. It also gave a viability, T/C (second compound 0.0316 µM, first compound 0.1 µM) of 66.7%, a viability, T/C (second compound 0.0316 µM, first compound 0.316 µM) of 44.6% and a viability, T/C (second compound 0.0316 µM, first compound 1 µM) of 37.4%. It also gave a viability, T/C (second compound 0.1 µM, first compound 0.00316 µM) of 58.9%, a viability, T/C (second compound 0.1 µM, first compound 0.01 µM) of 53.9% and a viability, T/C (second compound 0.1 µM, first compound 0.0316 µM) of 45.8%. The viability, T/C (second compound 0.1 µM, first compound 0.1 µM) was 41.1%, the viability, T/C (second compound 0.1 µM, first compound 0.316 µM) was 34.4% and the viability, T/C (second compound 0.1 µM, first compound 1 µM) was 29.3%. The viability, T/C (second compound 0.316 µM, first compound 0.00316 µM) was 19.5%, the viability, T/C (second compound 0.316 µM, first compound 0.01 µM) was 18.5% and the viability, T/C (second compound 0.316 µM, first compound 0.0316 µM) was 21.5%. For the same compound, the viability, T/C (second compound 0.316 µM, first compound 0.1 µM) was 19.9%, the viability, T/C (second compound 0.316 µM, first compound 0.316 µM) was 24.6% and the viability, T/C (second compound 0.316 µM, first compound 1 µM) was 22.4%. For the same compound, the viability, T/C (second compound 1 µM, first compound 0.00316 µM) was 18.6%, the viability, T/C (second compound 1 µM, first compound 0.01 µM) was 23.3% and the viability, T/C (second compound 1 µM, first compound 0.0316 µM) was 20.4%. The viability, T/C (second compound 1 µM, first compound 0.1 µM) was 20.8%, the viability, T/C (second compound 1 µM, first compound 0.316 µM) was 20.1% and the viability, T/C (second compound 1 µM, first compound 1 µM) was 23.3%. It also gave a viability, T/C (second compound 3.16 µM, first compound 0.00316 µM) of 20.1%, a viability, T/C (second compound 3.16 µM, first compound 0.01 µM) of 22.1% and a viability, T/C (second compound 3.16 µM, first compound 0.0316 µM) of 19.7%. It also gave a viability, T/C (second compound 3.16 µM, first compound 0.1 µM) of 18.9%, a viability, T/C (second compound 3.16 µM, first compound 0.316 µM) of 18.9% and a viability, T/C (second compound 3.16 µM, first compound 1 µM) of 18.7%. For the same compound, the viability, T/C (second compound 10 µM, first compound 0.00316 µM) was 20.3%, the viability, T/C (second compound 10 µM, first compound 0.01 µM) was 18% and the viability, T/C (second compound 10 µM, first compound 0.0316 µM) was 16.9%. For the same compound, the viability, T/C (second compound 10 µM, first compound 0.1 µM) was 17.8%, the viability, T/C (second compound 10 µM, first compound 0.316 µM) was 22% and the viability, T/C (second compound 10 µM, first compound 1 µM) was 25.9%.
